Where two headings read alike, the source gives them in different places.

The text below walks through data of patent EP0381335A1, “Antiviral agent and novel nucleoside” (TANABE SEIYAKU CO., LTD., priority 1989, dated 1990).

In one series the test system is HIV. Description: Anti-HIV assay: protection of HIV-infected MT-4 cells against cytopathic effect (trypan blue exclusion / MTT method). The format is cell-based. The procedure:
(§1) The anti-HIV activity of the agents that are subject of the present invention was measured according to the method of E. De Clercq et al. (The Journal of Virological Methods, 16 : 171 - 185 (1987) and The Journal of Virological Methods, 20 : 309-321 (1988)).
(§2) MT-4 cells of a 24 hours-old culture were suspended at 5 x 10⁵ cells per ml. Of this suspension, 2-ml portions were divided over polyisopropylene 2059 Falcon culture tubes (Becton Dickinson). The MT-4 cell suspensions were then centrifuged for 10 min at 140 x g and the supernatants were discarded. The MT-4 cell pellets were infected with 200 µl of a 1:5 HIV stock solution (titer 10³ CCID₅₀ ml; i.e., finally 10 CCID₅₀ well) in RPMI medium (composition as described above). Control MT-4 cell pellets were mock-infected with 200 µl RPMI medium. The culture tubes were then capsulated and subsequently incubated at 37 °C for 1.5 hours, upon which 1.8 ml of RPMI medium was added to each tube. The HIV-infected and mock-infected MT-4 cells were each pooled in two 45-ml centrifuge tubes.
(§3) Varying dilutions of the test compounds in RPMI medium were added in 100-µl volumes to the wells of a flat bottom, 96-well plastic microtiter tray (Sterilin Ltd. Teddington, Middlesex, England).
(§4) Of the HIV-infected or mock-infected MT-4 cell suspensions 100-µl volumes were added to the wells. The cell cultures were then incubated at 37 °C in a 5 % CO₂/95 % air humidified atmosphere. The cells remained in contact with the test compounds during the whole incubation period. Five days after infection the viability of the cells was examined microscopically in a hematocytometer by the trypan blue dye exclusion method.
(§5) Alternatively, viability of the cells was determined by the tetrazolium-based colorimetric method (MTT method) as described in the Journal of Virological Methods, 20 : 309 - 321 (1988).
(§6) Flat bottom, 96-well plastic mictrotiter trays (Falcon, Becton Dickinson, Mountain View, CA) were filled with 100 µl of complete medium using a Titertek® Multidrop dispenser (Flow Laboratories). This eight-channel dispenser could fill a microtiter tray in less than 10 s. Subsequently, stock solutions (10 x final test concentration) of compounds were added in 25 µl volumes to two series of triplicate wells so as to allow simultaneous evaluation of their effects on HIV- and mock-infected cells. Serial five-fold dilutions were made directly in the microtiter trays using an eight-channel Titertek® pipette (FLow Laboratories). Untreated control HIV- and mock-infected cell samples were included for each compound.
(§7) Exponentially growing MT-4 cells were centrifuged for 10 min at 140 x g and the supernatants were discarded. The pellet was either infected with 100 CCID₅₀ or mock-infected. The MT-4 cells were resuspended at 4 x 10⁵ cells/ml in two flasks which were connected with an autoclavable dispensing cassette of a Titertek® Multidrop dispenser. Under slight magnetic stirring 100-µl volumes were then transferred to the microtiter tray wells. The outer row wells were filled with 100 µl of medium. The cell cultures were incubated at 37 °C in a humidified atmosphere of 5 % CO₂ in air. The cells remained in contact with the test compounds during the whole incubation period. Five days after infection the viability of mock- and HIV infected cells was examined either microscopically in a hemacytometer by the trypan blue exclusion method or spectrophotometrically by the MTT method.
(§8) The MTT method is based on the reduction of the yellow coloured 3-(4,5-dimethylthiazol-2-yl)-2,5-diphenyltetrazolium bromide (MTT) (Sigma Chemical Co., St. Louis, MO) by mitochondrial dehydrogenases of metabolically active cells to a blue formazan which can be measured spectrophotometrically. Therefore, to each well of the microtiter trays, 20 µl of a solution of MTT (7.5 mg/ml) in phosphate-buffered saline was added using the Titertek® Multidrop. The trays were further incubated at 37 °C in a CO₂ incubator for the indicated times. […]
On the technique in general: Damage to the host cells serves as the signal in cytopathic effect assays.

In the next series the test system is MT-4 cells. Description: Cytotoxicity in mock-infected MT-4 cells (trypan blue exclusion / MTT method). It counts as cell-based. Particulars: for HIV (µM) TD₅₀: human, 5 days. The procedure: as §1, §2, §3, §4, §5, §6, §7, §8
In general terms: Tetrazolium dyes change colour on reduction, which living cells bring about.

[1] abbreviates: Human immunodeficiency virus 1, MT4, 120 h, HIV-infected MT-4 cells, five days after infection, MTT method, dose achieving 50 % protection, read-out: HIV (µM) ED₅₀.
The mark [2] stands for this setting: Human immunodeficiency virus 1, MT4, effective amount necessary for permitting the cells infected with HIV to live to the 5th day after infection, read-out: ED₅₀.

Take `Cc1cn([C@H]2C[C@H](ONC=O)[C@@H](CO)O2)c(=O)[nH]c1=O` [compound 1, 3′-O-formamidothymidine]: in the series on HIV (setting [1]), the EC50 turned out to be 13 µM. Also, in the series on MT-4 cells, the “HIV (µM) TD₅₀” value is recorded as 144 µM.

For `NO[C@H]1C[C@H](n2cnc3c(=O)[nH]c(N)nc32)O[C@@H]1CO` [compound 5, 9-(3-O-amino-2-deoxy-β-D-erythro-pentofuranosyl)guanine], the EC50 in the series with HIV (setting [1]) came out at 2.17 µM. For the same molecule, the “HIV (µM) TD₅₀” value with MT-4 cells was found to be 74.03 µM.

Consider `NO[C@H]1C[C@H](n2ccc(N)nc2=O)O[C@@H]1CO` [3′-O-amino-2′-deoxycytidine], for which the EC50 in the series with HIV (setting [2]) is 61 µM. Moreover, the cytotoxicity entry in the series on MT-4 cells (at the concentration of 500 µM) is given as “no cytotoxicity appeared”.

Take `Cc1cn([C@H]2C[C@H](ON)[C@@H](CO)O2)c(=O)[nH]c1=O` [3′-O-aminothymidine]: the EC50 in the series on HIV (setting [2]) was determined as 23 µM. The cytotoxicity entry in the series on MT-4 cells (at the concentration of 125 µM) is recorded as “only slight cytotoxicity appeared”.

For `CC(C)=NO[C@H]1C[C@H](n2cc(C)c(=O)[nH]c2=O)O[C@@H]1CO` [compound 3, 3′-O-isopropylideneaminothymidine], the EC50 in the series on HIV (setting [1]) is 32 µM. Also, the “HIV (µM) TD₅₀” value with MT-4 cells was 313 µM.

Regarding `C=NO[C@H]1C[C@H](n2cc(C)c(=O)[nH]c2=O)O[C@@H]1CO` [compound 2, 3′-O-methylideneaminothymidine], in the series with HIV (setting [1]), the EC50 is 17 µM. Besides, the “HIV (µM) TD₅₀” value with MT-4 cells turned out to be 106 µM.

As to `NO[C@H]1C[C@H](n2cnc3c(N)ncnc32)O[C@@H]1CO` [compound 4, 9-(3-O-amino-2-deoxy-β-D-erythro-pentofuranosyl)adenine], the EC50 in the series on HIV (setting [1]) and with HIV (setting [2]) was 32 µM throughout. The “HIV (µM) TD₅₀” value with MT-4 cells worked out at 1000 µM.
